Test results as given in patent US6737383B1, “Herbicidal oxadiazolidines” (priority 1999, dated 2004).

Tests used:
[1] = tested on: smallflower flatsedge; assay: Test B flood test smallflower flatsedge; format: in vivo, Cyperus difformis
Summary of the method: (§1)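 Each value is a visual injury score relative to controls, with 10 meaning complete control and 0 no effect. Evaluation took place twelve to sixteen days after the 2-leaf-stage plants were treated and kept in the greenhouse.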

[2] = tested on: soybean; assay: Test B pre/postemergence soybean; format: in vivo, Glycine max
Summary of the method: (§2)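 Test chemicals in a non-phytotoxic solvent mixture with surfactant were sprayed preemergence onto planted seeds and postemergence onto plants 2 to 18 cm tall (1- to 4-leaf stage). After twelve to sixteen days in a greenhouse, injury was visually rated against untreated controls from 0 (no effect) to 10 (complete control).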

[3] = tested on: cocklebur; assay: Test B pre/postemergence cocklebur; format: in vivo, Xanthium strumarium
Summary of the method: as §2

[4] = tested on: blackgrass; assay: Test B pre/postemergence blackgrass; format: in vivo, Alopecurus myosuroides
Summary of the method: as §2

[5] = tested on: velvetleaf; assay: Test B pre/postemergence velvetleaf; format: in vivo, Abutilon theophrasti
Summary of the method: as §2

[6] = tested on: sugar beet; assay: Test B pre/postemergence sugar beet; format: in vivo, Beta vulgaris
Summary of the method: as §2

[7] = tested on: crabgrass; assay: Test B pre/postemergence crabgrass; format: in vivo, Digitaria sanguinalis
Summary of the method: as §2

[8] = tested on: bamyardgrass; assay: Test B flood test barnyardgrass; format: in vivo, Echinochloa crus-galli
Summary of the method: as §1

[9] = tested on: corn; assay: Test B pre/postemergence corn; format: in vivo, Zea mays
Summary of the method: as §2

[10] = tested on: rice; assay: Test B flood test rice; format: in vivo, Oryza sativa
Summary of the method: as §1

[11] = tested on: wheat; assay: Test B pre/postemergence wheat; format: in vivo, Triticum aestivum
Summary of the method: as §2

[12] = tested on: bedstraw; assay: Test B pre/postemergence bedstraw; format: in vivo, Galium aparine
Summary of the method: as §2

[13] = tested on: wild oat; assay: Test B pre/postemergence wild oat; format: in vivo, Avena fatua
Summary of the method: as §2

[14] = tested on: duck salad; assay: Test B flood test duck salad; format: in vivo, Heteranthera limosa
Summary of the method: as §1

[15] = tested on: surinam grass; assay: Test B pre/postemergence surinam grass; format: in vivo, Brachiaria decumbens
Summary of the method: as §2

[16] = tested on: purple nutsedge; assay: Test B pre/postemergence purple nutsedge; format: in vivo, Cyperus rotundus; details: Postemergence
Summary of the method: as §2

[17] = Rate 62 g/ha, headed Pre-emergence (flood test species), scale 0 to 10 (0 no effect, 10 complete control)
[18] = Rate 125 g/ha, Pre-emergence, flood test species, scale 0 to 10 where 0 is no effect and 10 is complete control
[19] = Rate 250 g/ha, Pre-emergence, flood-test species, scale 0 to 10, 0 is no effect, 10 is complete control
[20] = Rate 500 g/ha, Pre-emergence, flood test species, scale 0 to 10 (0 no effect, 10 complete control)
[21] = Preemergence, Rate 62 g/ha, scale of 0 to 10 where 0 is no effect and 10 is complete control
[22] = Preemergence, Rate 250 g/ha, scale of 0 to 10 where 0 is no effect and 10 is complete control
[23] = Preemergence, Rate 500 g/ha, scale of 0 to 10 where 0 is no effect and 10 is complete control
[24] = Rate 62 g/ha, Postemergence, scale of 0 to 10 where 0 is no effect and 10 is complete control
[25] = Rate 125 g/ha, Postemergence, scale 0 to 10
[26] = Rate 125 g/ha, Preemergence, scale of 0 to 10 where 0 is no effect and 10 is complete control
[27] = Rate 500 g/ha, Postemergence, scale 0 to 10, 0 no effect, 10 complete control

CC(C)N(C(=O)n1oc(=O)n(CCC2OCCO2)c1=O)c1ccc(F)cc1 [Compound 219]
5: Soybean plant response rating [2, 24] | Soybean plant response rating [2, 25] | Blackgrass plant response rating [4, 24] | Crabgrass plant response rating [7, 21] | Corn plant response rating [9, 22] | Corn plant response rating [9, 27] | Wheat plant response rating [11, 24] | Wheat plant response rating [11, 26] | Bedstraw plant response rating [12, 26] | Wild oats plant response rating [13, 26] | Plant response rating (0 to 10; 0 is no effect, 10 is complete control), B. signalgrass ([15]; Rate 250 g/ha, Postemergence)
3: Velvetleaf plant response rating [5, 21] | Sugarbeets plant response rating [6, 21] | Crabgrass plant response rating [7, 24] | Wheat plant response rating [11, 21] | Wild oats plant response rating [13, 25] | Ducksalad plant response rating [14, 20]
9: Crabgrass plant response rating [7, 22] | Barnyardgrass plant response rating [8, 20] | Plant response rating, Wheat [11, 23] | Plant response rating, Bedstraw [12, 23] | Plant response rating, Wild oats [13, 23] | B. signalgrass plant response rating ([15]; Preemergence, Rate 250 g/ha, scale 0 to 10, 0 is no effect, 10 is complete control) | Plant response rating, B. signalgrass [15, 23]
10: Blackgrass plant response rating [4, 22] | Plant response rating, Blackgrass [4, 23] | Blackgrass plant response rating [4, 26] | Plant response rating, Velvetleaf [5, 23] | Plant response rating, Crabgrass [7, 23]
8: Plant response rating (0 to 10; 0 is no effect, 10 is complete control), Blackgrass ([4]; Rate 250 g/ha, Postemergence) | Blackgrass plant response rating [4, 27] | Plant response rating, Sugarbeets [6, 23] | Crabgrass plant response rating [7, 26] | Crabgrass plant response rating [7, 27] | Barnyardgrass plant response rating [8, 19] | Wheat plant response rating [11, 22] | Bedstraw plant response rating [12, 22] | Plant response rating (0 to 10; 0 is no effect, 10 is complete control), Bedstraw ([12]; Rate 250 g/ha, Postemergence) | Bedstraw plant response rating [12, 27] | Wild oats plant response rating [13, 22] | B. signalgrass plant response rating [15, 27]
2: Plant response rating (0 to 10; 0 is no effect, 10 is complete control), Velvetleaf ([5]; Rate 250 g/ha, Postemergence) | Wild oats plant response rating [13, 21] | B. signalgrass plant response rating ([15]; Rate 125 g/ha, Postemergence, scale 0 (no effect) to 10 (complete control))
4: S. Flatsedge plant response rating [1, 20] | Plant response rating (0 to 10; 0 is no effect, 10 is complete control), Cocklebur ([3]; Rate 250 g/ha, Postemergence) | Cocklebur plant response rating [3, 27] | Velvetleaf plant response rating [5, 27] | Sugarbeets plant response rating [6, 22] | Sugarbeets plant response rating [6, 24] | Sugarbeets plant response rating [6, 25] | Sugarbeets plant response rating [6, 26] | Plant response rating (0 to 10; 0 is no effect, 10 is complete control), Sugarbeets ([6]; Rate 250 g/ha, Postemergence) | Crabgrass plant response rating [7, 25] | Plant response rating (0 to 10; 0 is no effect, 10 is complete control), Corn ([9]; Rate 250 g/ha, Postemergence) | Plant response rating (0 to 10; 0 is no effect, 10 is complete control), Wild oats ([13]; Rate 250 g/ha, Postemergence) | B. signalgrass plant response rating [15, 21]
1: Cocklebur plant response rating [3, 24] | Cocklebur plant response rating [3, 25] | Bedstraw plant response rating [12, 21] | Wild oats plant response rating [13, 24]
7: Plant response rating (0 to 10; 0 is no effect, 10 is complete control), Soybean ([2]; Rate 250 g/ha, Postemergence) | Soybean plant response rating [2, 27] | Blackgrass plant response rating [4, 21] | Blackgrass plant response rating [4, 25] | Velvetleaf plant response rating [5, 22] | Sugarbeets plant response rating [6, 27] | Plant response rating, Corn [9, 23] | Plant response rating (0 to 10; 0 is no effect, 10 is complete control), Wheat ([11]; Rate 250 g/ha, Postemergence) | Wheat plant response rating [11, 27]
0: S. Flatsedge plant response rating [1, 17] | S. Flatsedge plant response rating [1, 18] | S. Flatsedge plant response rating [1, 19] | Soybean plant response rating [2, 21] | Soybean plant response rating [2, 22] | Plant response rating, Soybean [2, 23] | Soybean plant response rating [2, 26] | Cocklebur plant response rating [3, 21] | Cocklebur plant response rating [3, 22] | Plant response rating, Cocklebur [3, 23] | Cocklebur plant response rating [3, 26] | Velvetleaf plant response rating [5, 24] | Velvetleaf plant response rating [5, 25] | Barnyardgrass plant response rating [8, 17] | Barnyardgrass plant response rating [8, 18] | Corn plant response rating [9, 21] | Corn plant response rating [9, 24] | Corn plant response rating [9, 25] | Corn plant response rating [9, 26] | Rice plant response rating [10, 17] | Rice plant response rating [10, 18] | Rice plant response rating [10, 19] | Ducksalad plant response rating [14, 17] | Ducksalad plant response rating [14, 18] | Ducksalad plant response rating [14, 19] | B. signalgrass plant response rating [15, 24] | Nutsedge plant response rating ([16]; Rate 62 g/ha, scale of 0 to 10 where 0 is no effect and 10 is complete control) | Nutsedge plant response rating ([16]; Rate 125 g/ha, scale 0 to 10) | Plant response rating (0 to 10; 0 is no effect, 10 is complete control), Nutsedge ([16]; Rate 250 g/ha) | Nutsedge plant response rating ([16]; Rate 500 g/ha, scale 0 to 10, 0 no effect, 10 complete control)
6: Velvetleaf plant response rating [5, 26] | Plant response rating (0 to 10; 0 is no effect, 10 is complete control), Crabgrass ([7]; Rate 250 g/ha, Postemergence) | Rice plant response rating [10, 20] | Wheat plant response rating [11, 25] | Bedstraw plant response rating [12, 24] | Bedstraw plant response rating [12, 25] | Wild oats plant response rating [13, 27] | B. signalgrass plant response rating [15, 26]
